According to patent US11447638B2, “Acetalanthraquinone derivatives useful for cellular staining” (BIOSTATUS LIMITED, priority 2016, dated 2022):
Each block holds one molecule with its values, some of them ahead of it.

Tests used:
2780AD = test: Further tests against cell lines, 2780AD; assay type: cell-based; conditions: ratio to A2780
Protocol: (§1) Further tests were carried out against A2780, 2780AD and MCP1 cell lines.

MCP1 = test: Further tests against cell lines, MCP1; assay type: cell-based; conditions: ratio to A2780
Protocol: as §1

2780/cp70 = test: Further tests against cell lines, 2780/cp70; assay type: cell-based; conditions: ratio to A2780
U-2 OS cells = test: Confocal laser scanning microscopy (CLSM) localisation analysis; assay type: cell-based, human; conditions: 30 min incubation, Ex 637 nm, Em >665 nm, FIG. 4 and 5
Protocol: Confocal laser scanning microscopy (CLSM) was used to analyse the localisation of compounds BST-100, BST-101 and BST-106 with the U-2 OS cells, as it permitted the acquisition of volume limited optical sections through the cell and media. Excitation (637 nm) and emission (>665 nm) values for the probe analysis were the optimal conditions. The data sets obtained were processed and assembled into a single maximum projection image.
The patterns were analysed after 30 min incubation at different z depths and eliminating the solution background. The nucleus/cytoplasm ratio was calculated to quantify the localisation of the probe per cell.
A Radiance CLSM (BioRad Microscience) was used attached to an inverted Nikon microscope. Image acquisition was performed using excitation (637 nm) and emission (>665 nm) wavelengths. The histogram plot reports the nucleus/cytoplasm index to determine DNA binding in live cells. The calibration bar represents 10 μm.
The compounds BST-108, BST-109 were analysed in the same way.

[1] = Absorption and fluorescence spectra of compounds in PBS or HEPES; assay type: physicochemical; conditions: for peak excitation wavelength: excitation wavelength used for fluorescence spectra of FIG. 1A/1B; for fluorescence emission, 540 nm (Ex in PBS): excited at 540 nm; for fluorescence emission, 540 nm (Ex in PBS) / fluorescence emission, λ1 nm (Ex in HEPES) / fluorescence emission, λ1 nm (Ex in PBS): 20 μM; for fluorescence emission, λ1 nm (Ex in HEPES) / fluorescence emission, λ1 nm (Ex in PBS): excited at absorption peak 1 (λ1)
Protocol: The compounds were exited at 540 nm and at the wavelength of their absorption peak 1 (λ1 nm). The far-red fluorescent DNA dye DRAQ5 was used as reference.
Compounds were dissolved in DMSO (Sigma) to 20 mM stock concentration. DRAQ5 (Biostatus Ltd) was used as a control anthraquinone agent dissolved in deionised water. Working solutions were prepared in PBS (phosphate buffered saline; Sigma) or HEPES (4-(2-hydroxyethyl)-1-piperazineethanesulfonic acid; Sigma) at 20 or 40 μM. Probe solutions (20 μM), respectively in PBS or HEPES, were pipetted into a 1 mL quartz cuvette (Thermo Fisher Scientific). After obtaining baseline spectra in relevant buffer to zero the instrument, absorbance measurements were obtained using a Beckmann Coulter DU 800 UV/Visible spectrophotometer. The excitation wavelengths were scanned from 280 to 800 nm. Fluorescent spectral scans were performed using a Perkin Elmer LS-50B Luminescence spectrophotometer. To obtain emission scans, the excitation wavelength was set accordingly to the maximum values for each agent or another designated excitation wavelength that matches typical laser lines; and the emission wavelength were scanned from 400 nm to 900 nm in 1 nm increments. A Xenon flash lamp was used as the light source, with the lamp energy set to high. For each data point ten measurements were acquired with the photomultiplier tube sensitivity set at 125.
Compounds were excited at a wavelength corresponding to the first absorbance peak 1 (FIG. 1A and FIG. 1B show absorption (line) and fluorescence (dots) spectra of compounds; both are normalised to peak value.

A549 live cells = test: Loading of A549 live cells, wide-field fluorescence microscopy; assay type: cell-based, human; conditions: 20 μM, 30 min incubation, FIG. 3
Protocol: (§2) Before analysis, cells were incubated at 37° C. in the dark for the period designated. Samples were analysed directly without any further washing step. For live cell labelling cells were seeded, plated in a similar way, into a similar multi-well dish for optimal optical performance and could be used across all microscope platforms.
(§3) This basic protocol was the standard for testing the patterns of AAQ agents at 20 μM, compared to 20 μM of DRAQ5 as the benchmark reference (both in terms of cellular location and ability to detect the red fluorescence).
Low resolution wide-field fluorescence microscopy was used to evaluate cell uptake and localisation of the probe compounds. The system was an Axiovert 100 microscope (Carl Zeiss, Welwyn Garden City, UK) ×10 0.3 NA air objective lens and an ORCA-ER CCD camera (Hamamatsu, Reading, UK). Illumination was controlled by a shutter in front of the transmission lamp. Image capture was controlled using Metamorph software. Human non-small cell lung cancer A549 cell line was used as the cell model to determine whether variation of the probe loading and localisation occurred in cell population sustaining a “side population” (SP) (Smith P J, Wiltshire M, Chappell S C, Cosentino L, Burns P A, Pors K, Errington R J. Kinetic analysis of intracellular Hoechst 33342—DNA interactions by flow cytometry: misinterpretation of side population status? Cytometry A 2013; 83:161-9) with a known capacity to efflux xenobiotic molecules, including the DNA dye Hoechst 33342.
Cells were incubated for 30 min with each compound and then images were collected at a 30 ms exposure time using low resolution wide-field fluorescence microscopy. Using an Axiovert 100 microscope (Carl Zeiss, Welwyn Garden City, UK) ×10 0.3 NA air objective lens and an ORCA-ER CCD camera (Hamamatsu, Reading, UK). Illumination was controlled by a shutter in front of the transmission lamp. Image capture was controlled using Metamorph software. The calibration bar represents 50 μm.

A549 = test: MTT cellular viability (growth inhibition) assay, A549; assay type: cell-based; conditions: Homo sapiens, 0.25-100 μM, 72 h, Table 3
Protocol: (§4) The viability of A549 or MCF7 in response to compounds was determined using the MTT (3-(4,5-dimethylthiazolyl-2-)-2, 5-diphenyltetrazolium bromide) assay according to the protocol set out in Mosmann T., Rapid colorimetric assay for cellular growth and survival: application to proliferation and cytotoxicity assays. Journal of immunological methods 1983; 65:55-63.
(§5) Initially, cells were seeded into a rounded-bottom 96 well plate (Corning) at six different cell seeding densities (0.5×104, 1×104, 2×104, 3×104, 4×104, and 5×104) per mL of R10 media (cells/mL) in order to optimise the assay and establish the most suitable seeding assay. Concentration of 1×10^4 cells/mL was determined to be the optimum seeding density for both cell lines for 96 h total incubation. A control lane contained supplemented R10 only. The 96 well plates were incubated overnight at 37° C., 5% CO2 and 100% humidity to allow cell adhesion. Cells were then treated respectively with novel AAQs (0.25-100 μM) or growth inhibition (IC50) of compounds of the invention was studied against MCF7 and A549 cancer cell lines. Compounds were tested with a concentration range between 0.25 and 100 μM for 72 h and doxorubicin, as positive cytotoxic control, was tested in parallel at the same doses.

A549 cells = test: Flow cytometry analysis of cell uptake before/after hydrolysis; assay type: cell-based, human; conditions: 20 μM, 30 min; for % ile (25): low loader cell population
Protocol: Flow cytometry analysis was performed to evaluate the effect of pre-treatment with HCl to generate an active aldehyde on the cell uptake properties. A549 cells were incubated for 30 min with compounds of Formula (I) and its hydrolysed forms (20 μM) prior to analysis. The rate of uptake was tested in A549 cell culture media and in Aldefluor buffer, containing the MDR-blocker verapamil (Pearce and Bonnet 2007), to evaluate the effect in uptake with/without the Aldefluor assay system. Analysis was conducted in the viable subset of cells, corresponding to ˜95% of the total amount under investigation.
Aldefluor buffer contained verapamil vs. cell media. The cells were incubated with 20 μM of the respective AAQ/HAAQs (30 min) before analysis
Statistical analysis of A549 uptake before/after hydrolysis was also studied. Experiments were performed in cell media versus Aldefluor buffer. Data were processed using FlowJo software (Tree Star). DRAQ5 was used to set the dynamic range and as control dye and empty cells were used to determine auto-fluorescence.

[2] = test system: fixed human osteosarcoma U-2 OS cells; test: Labelling of fixed cells, wide-field fluorescence microscopy; assay type: cell-based; conditions: 20 μM, 1 h exposure in PBS, FIG. 2
Protocol: Cells were seeded in a 24 well coverslip bottomed-plate, cultured overnight in McCoys media. 24 or 48 hours later the cells were washed gently with 3×2 mL PBS per well. The PBS was removed and 0.5 mL of 4% paraformaldehyde solution [a 4% paraformaldehyde solution in PBS was made fresh each time from a 16% stock solution (Thermo Fisher Scientific)] was added in each well and cells were incubated for 30 min. The paraformaldehyde was removed and cells were washed 3×2 mL PBS per well. 1 mL of PBS or HEPES was added to each well.
as §2, §3
Low resolution wide-field fluorescence microscopy was used to evaluate cell labelling in fixed human osteosarcoma U-2 OS cells. The system was an Axiovert 100 microscope (Carl Zeiss, Welwyn Garden City, UK) ×10 0.3 NA air objective lens and an ORCA-ER CCD camera (Hamamatsu, Reading, UK). Illumination was controlled by a shutter in front of the transmission lamp. Image capture was controlled using Metamorph software. This evaluates the ability of the compounds to label cellular compartments without active uptake or efflux prohibiting delivery into the given cell. Image collection was performed after 1 h of exposure to probes in PBS. The calibration bar represents 50 μm.

MCF7 = test: MTT cellular viability (growth inhibition) assay, MCF7; assay type: cell-based; conditions: Homo sapiens, 0.25-100 μM, 72 h, Table 3
Protocol: as §4, §5

[3] = solution: Aldefluor buffer with verapamil

Compound: N.N.[Cl][Pt][Cl] [Cisplatin, reference compound]
RF (2780AD): 4.6
RF (MCP1) (MCP1): 1.26
RF (2780/cp70): 5.37

Compound: COC(CNCCCCCCNc1ccc(NCCN(C)C)c2c1C(=O)c1c(O)ccc(O)c1C2=O)OC [BST-301, 1-((6-((2,2-dimethoxyethyl)amino)hexyl)amino)-4-((2-(dimethylamino)ethyl)amino)-5,8-dihydroxyanthracene-9,10-dione]
RF (2780AD): 2.8
RF (MCP1) (MCP1): 0.39
RF (2780/cp70): 0.10

Compound: COC(CNCCCCCNc1ccc(NCCN(C)C)c2c1C(=O)c1c(O)ccc(O)c1C2=O)OC [BST-305, 1-((5-((2,2-dimethoxyethyl)amino)pentyl)amino)-4-((2-(dimethylamino)ethyl)amino)-5,8-dihydroxyanthracene-9,10-dione]
RF (2780AD): 5.2
RF (MCP1) (MCP1): 0.53
RF (2780/cp70): 0.14

Compound: COC(CNCCCNc1ccc(NCCN(C)C)c2c1C(=O)c1c(O)ccc(O)c1C2=O)OC [BST-303, 1-((3-((2,2-dimethoxyethyl)amino)propyl)amino)-4-((2-(dimethylamino)ethyl)amino)-5,8-dihydroxyanthracene-9,10-dione]
RF (2780AD): 9.7
RF (MCP1) (MCP1): 0.36
RF (2780/cp70): 0.19

peak excitation wavelength [1]: 584 nm
fluorescence emission, 540 nm (Ex in PBS) [1]: 670 nm
fluorescence emission, λ1 nm (Ex in HEPES) [1]: 664 nm
fluorescence emission, λ1 nm (Ex in PBS) [1]: 660 nm
IC50 (A549): 11.7 µM
IC50 (MCF7): 11.3 µM
Compound: COC(CCCCNc1ccc(NCCN(C)C)c2c1C(=O)c1ccccc1C2=O)OC [BST-106, 1-(5,5-Dimethoxypentylamino)-4-(2-(dimethylamino)ethylamino) anthracene-9,10-dione]
subcellular localisation by CLSM (U-2 OS cells): additional nuclear signal
fluorescence brightness / background in live cells (A549 live cells): high background
staining pattern in live cells (A549 live cells): heterogeneous cytoplasmic staining
Median (fluorescence, uptake) (A549 cells; [3]): 96.13
% ile (25) (A549 cells; [3]): 81.66
Median (fluorescence, uptake) (A549 cells; solution: media): 101.48
% ile (25) (A549 cells; solution: media): 84.64
fluorescence brightness / background in fixed cells [2]: very bright background
staining pattern in fixed cells [2]: diffuse cytoplasmic staining, with some perinuclear and nucleoli labelling

Compound: COC(CNCCCCNc1ccc(NCCN(C)C)c2c1C(=O)c1c(O)ccc(O)c1C2=O)OC [BST-304, 1-((4-((2,2-dimethoxyethyl)amino)butyl)amino)-4-((2-(dimethylamino)ethyl)amino)-5,8-dihydroxyanthracene-9,10-dione]
RF (2780AD): 11.8
RF (MCP1) (MCP1): 0.36
RF (2780/cp70): 0.07

Compound: COC(CNCCCCCCNc1ccc(NCCCCCCNCC(OC)OC)c2c1C(=O)c1c(O)ccc(O)c1C2=O)OC [BST-300]
RF (2780AD): 1.07
RF (MCP1) (MCP1): 0.37
RF (2780/cp70): 0.17

Compound: COC(CNCCNc1ccc(NCCN(C)C)c2c1C(=O)c1c(O)ccc(O)c1C2=O)OC [BST-302, 1-((2-((2,2-dimethoxyethyl)amino)ethyl)amino)-4-((2-(dimethylamino)ethyl)amino)-5,8-dihydroxyanthracene-9,10-dione]
RF (2780AD): 81.4
RF (MCP1) (MCP1): 0.61
RF (2780/cp70): 0.32

peak excitation wavelength [1]: 610 nm
fluorescence emission, 540 nm (Ex in PBS) [1]: 692 nm
fluorescence emission, λ1 nm (Ex in HEPES) [1]: 684 nm
fluorescence emission, λ1 nm (Ex in PBS) [1]: 685 nm
IC50 (A549): 1.7 µM
IC50 (MCF7): 1.44 µM
Compound: COC(CNC(=O)CCNc1ccc(NCCN(C)C)c2c1C(=O)c1c(O)ccc(O)c1C2=O)OC [BST-108, N-(2,2-Dimethoxyethyl)-3-(4-(2-(dimethylamino)ethylamino)-5,8-dihydroxy-9,10-dioxo-9,10-dihydroanthracen-1-ylamino)propanamide]
subcellular localisation by CLSM (U-2 OS cells): strong nuclear uptake and perinuclear staining, with possible ER accumulation
fluorescence brightness / background in live cells (A549 live cells): very bright cellular fluorescence
Median (fluorescence, uptake) (A549 cells; [3]): 67.08
% ile (25) (A549 cells; [3]): 57.65
Median (fluorescence, uptake) (A549 cells; solution: media): 75.48
% ile (25) (A549 cells; solution: media): 65.32
staining pattern in fixed cells [2]: heterogeneity in cytoplasmic staining and positive spots in the nuclei
